Key:
[1] = test system: experimental animal model of osteoarthritis (OA); test: Grid-walking test in osteoarthritis rat model; format: in vivo, Wistar rats
Protocol: (§1) Rats were anesthetized with chloral hydrate. The right knee joints of Group I were injected with normal saline solution and served as a control. Animals from the groups II, III, IV, V, VI, VII were injected with collagenase type II (Clostridium histolyticum). Collagenase (125 collagen digestion unit/mg) was dissolved in saline, and it was injected intra-articularly into the right knee joint twice on days 1 and 4 of the experiment (Al-Saffar, F., H. Ganabadi and S. Fakurazi. Collagenase and sodium iodoacetate-induced experimental osteoarthritis model in Sprague dawley rats. Asian J. Sci. Res. 2: 1-13, 2009). The left knees of all animals were left untreated as a control.
In this test the rats were allowed to explore freely for 4 minutes in a wire grid and when one of the limbs fell below the grid surface during free walking, the observer counted the number of foot-fault errors (footslips) (Starkey, M. L., Barritt, A. W., Yip, P. K., Davies, M., Hamers, F. P. T., McMahon, S. B., & Bradbury, E. J. (2005). Assessing behavioural function following a pyramidotomy lesion of the corticospinal tract in adult mice. Experimental Neurology, 195(2), 524-539. doi:10.1016/j.expneurol.2005.0).

[2] = test system: experimental animal model of osteoarthritis (OA); test: Knee diameter (digital caliper) and gross observations in collagenase-induced osteoarthritis rat model; format: in vivo, Wistar rats; conditions: for Right knee diameter: collagenase-injected knee; for Left knee diameter: untreated control knee
Protocol: In order to understand the anti-inflammatory and antioxidant potential of the nanoparticles of the invention in vivo an experimental animal model of osteoarthritis (OA) was established. The OA lesions were caused by matrix degradation of articular cartilage using enzymatic means, such as collagenase type-II. Following the induction of osteoarthritis, the studied nanoparticles were administered for 8 weeks in which period the morphological and behavioral changes were measured and finally histological analysis of the articular cartilage samples concluded the in vivo study.
as §1
Changes in body weight and knee diameter were measured on the 1st, 4th,11th,21st,31st,41st,51st, 61st, 71st day before every injection. Knee diameter was measured using a digital caliper. […] A change in body weight is also measured as one of the parameters to assess the course of the disease in the OA animal models.

CCK-8 viability assay = format: cell-based; conditions: human, primary human chondrocytes; read-out: Mean % relative viability
Protocol: b) The viability of human primary chondrocytes was evaluated following incubation with increasing concentrations of either the pure Naringin (S1) or the nanosystems (Samples S2 and S3) at 2-10-50µM of encapsulated Naringin (1:5 serial dilutions) for 72h (higher concentrations were not used because the nanosystems become insoluble and aggregates sediment on the cell monolayer). For S2 this corresponded to 6,4 µg/ml (for 2 µM of Naringin), 32 µg/ml (for 10 µM of Naringin) and 158 µg/ml (for 50 µM of Naringin) respectively, of total NP concentration. For S3 (CS[PLA[NAR]]) the total NP concentrations to provide the same µM of encapsulated Naringin were 14,4 / 72 / 360 µg/m). As control for the nanosystems, a blank PLA nanoparticle preparation coated with chitosan (S4) was used, at the same µg/ml polymer concentration like the ones used to achieve the 2-10-50µM range for Naringin (the difference being that the blank contains no Naringin). Finally, the blank S4 was used at the 14,4/72/360 µg/ml concentration range (1:5 serial dilutions). Following incubation, the CCK-8 viability kit was used according to manufacturer's instructions (Sigma, 96992-500TESTS-F). Macroscopical and microscopical observation confirmed the proper complete solubility and dispersion of the Nanoparticles. Importantly, healthy cell morphology was observed (spindle-like attached cells with several processes) with concomitant absence of undissolved material.
Table 5. Effect of the natural products and the nanosystems on the relative cell viability of primary human chondrocytes. Measurements obtained using the CCK-8 viability kit. Values normalized to positive control (PC; set to 100; arbitrary unit). Samples' coding: S1= pure Naringin, S2=Naringin encapsulated in PLA nanoparticles [PLA[NAR]], S3=Naringin encapsulated in PLA nanoparticles coated with chitosan CS[PLA[NAR]], and S4=Blank PLA nanoparticles coated with chitosan, CS(PLA[---]].

[3] = test system: experimental animal model of osteoarthritis (OA); test: von Frey mechanical allodynia test in osteoarthritis rat model; format: in vivo, Wistar rats; conditions: for Paw Withdrawal Threshold (%): right paw/(right paw + left paw)*100
Protocol: Healthy adult male Wistar rats (150-200 g) were used for the study, with water and food ad libitum, at a constant temperature of 22°C and controlled lighting (12 h light/12 h dark cycle). […] As far as the dispersion procedure of the injectables is concerned, all the natural compounds were dissolved in saline solution, whereas the studied nanoparticles were mechanically grinded in a mortar and pestle set with saline solution and Tween 20 (2% w/v) and heated at 36 °C before each treatment. There were six treatments administered every 10 days. At the end of the experiment rats were euthanized and both knees were collected for histological analysis. Rats were anesthetized with chloral hydrate. The right knee joints of Group I were injected with normal saline solution and served as a control. Animals from the groups II, III, IV, V, VI, VII were injected with collagenase type II (Clostridium histolyticum). Collagenase (125 collagen digestion unit/mg) was dissolved in saline, and it was injected intra-articularly into the right knee joint twice on days 1 and 4 of the experiment ([…] and S. Fakurazi. Collagenase and sodium iodoacetate-induced experimental osteoarthritis model in Sprague dawley rats. Asian J. Sci. Res. 2: 1-13, 2009). The left knees of all animals were left untreated as a control. For the evaluation of the effectiveness and time of release of the encapsulated compounds, all animals were subjected to a series of behavioral testing in addition to the measurements of body weight and knees diameter change. The experimental protocol of the present study followed the combination of three different behavioral tests, which are von Frey mechanical allodynia test, grid walking and slope walking test. Behavioral tests are performed in three phases, at the beginning before the start of treatment, in the middle of treatment (approximately 35-40 days) and at the end (after the 70th day). Mechanical allodynia was tested by the von Frey method which detects pain threshold as the paw withdrawal response. For the testing, rats were placed into plastic chambers that allow access to the plantar surface of the hind paws. […] In Table 15 below, the nociceptive threshold is defined as: nociceptive threshold (%) = ([…])/((nociceptive; threshold on right paw + nociceptive threshold of left paw))*100 [formula] Table 13: von Frey-paw withdrawal threshold (g)

[4] = 40 days (half of experimental protocol)
[5] = 70 days (end of experimental protocol)

C[C@@H]1O[C@@H](O[C@H]2[C@H](Oc3cc(O)c4c(c3)O[C@H](c3ccc(O)cc3)CC4=O)O[C@H](CO)[C@@H](O)[C@@H]2O)[C@H](O)[C@H](O)[C@H]1O [S1 [NAR], Naringin]
Foot fault in grid-walk test (4 min) ([1]; 11 days left paw): 3,4 | Foot fault in grid-walk test (4 min) ([1]; 11 days right paw): 5,6 | Foot fault in grid-walk test (4 min) ([1]; 40 days left paw): 2 | Foot fault in grid-walk test (4 min) ([1]; 40 days right paw): 3 | Foot fault in grid-walk test (4 min) ([1]; 70 days left paw): 2,8 | Foot fault in grid-walk test (4 min) ([1]; 70 days right paw): 2,4 | % Changes in Left knee diameter ([2]; 11 days (before treatment)): 0,26% | % Changes in Right knee diameter ([2]; 11 days (before treatment)): 4,14% | % Changes in Left knee diameter [2, 4]: 0,79% | % Changes in Right knee diameter [2, 4]: 3,25% | % Changes in Left knee diameter [2, 5]: 0,84% | % Changes in Right knee diameter [2, 5]: 2,35% | Right knee diameter ([2]; 1st injection CO/saline (before treatment)): 0,85 cm | Right knee diameter ([2]; 1st treatment, 10 mg/kg (S1, ibuprofen i.p.; nanoparticles i.a.)): 0,8852 cm | Right knee diameter ([2]; 2nd injection CO/saline (before treatment)): 0,882 cm | Right knee diameter ([2]; 3rd treatment): 0,9 cm | Right knee diameter ([2]; 4th treatment): 0,8776 cm | Right knee diameter ([2]; 5th treatment): 0,8712 cm | Right knee diameter ([2]; 6th treatment): 0,87 cm | Right knee diameter ([2]; final): 0,87 cm | Left knee diameter ([2]; 1st injection CO/saline): 0,8572 cm | Left knee diameter ([2]; 1st treatment): 0,8594 cm | Left knee diameter ([2]; 2nd injection CO/saline): 0,858 cm | Left knee diameter ([2]; 4th treatment): 0,864 cm | Left knee diameter ([2]; final): 0,8644 cm | viability at 72 h, 10 µM (CCK-8 viability assay): 136% | viability at 72 h, 50 µM (CCK-8 viability assay): 130% | viability at 72 h, 200 µM (CCK-8 viability assay): 111% | von Frey-paw withdrawal threshold ([3]; 11 days (before treatment)): 63 g | von Frey-paw withdrawal threshold ([3]; 40 days (half of experimental protocol), 10 mg/kg (S1, ibuprofen i.p.; nanoparticles i.a.)): 81,12 g | von Frey-paw withdrawal threshold ([3]; 70 days (end of experimental protocol), 10 mg/kg (S1, ibuprofen i.p.; nanoparticles i.a.)): 83,96 g | von Frey-paw withdrawal threshold ([3]; left-control paw): 88,68 g | paw withdrawal thresholds after commencement of treatment (in words) ([3]; rat, in vivo): presented an increase | Paw Withdrawal Threshold (%) ([3]; 11 days (before treatment)): 41,53% | Paw Withdrawal Threshold (%) [3, 4]: 45,55% | Paw Withdrawal Threshold (%) [3, 5]: 45,95%

— patent EP4385495A1, “NANOSYSTEMS FOR THE ENCAPSULATION OF THERAPEUTIC AGENTS” (National Technical University of Athens, priority 2022, dated 2024)
